In brackets after ≈: the same amount, converted by molar mass. Read-outs that look alike come from different tables or passages of the source.
Legend:
[1] = Serum protein binding estimated from MIC shift, serum vs serum ultrafiltrate (mouse); type: in vitro ADME; conditions: mouse serum; from mean MICs, broth microdilution; this study; read-out: % Bound (protein binding estimate) (converted)
Text: (§1) Avid binding of oritavancin (ORI) to filtration and dialysis membranes renders most protein binding methodologies unsuitable. To control for any impact of serum components on bacterial growth and antibiotic activity, MIC shifts (from arithmetic drug dilutions) and area under the inhibitory curve (AUIC) shifts (from time-kill assays) were quantified in the presence of serum (SER) compared to SER ultrafiltrate (ULTRA; free of albumin) to estimate ORI binding to serum. In this manner, the extent of reduction in oritavancin activity in serum was related to its degree of serum protein binding. The method was benchmarked using daptomycin and ceftriaxone (Lee et al., Antimicrob Agents Chemother. 35:2505-2508 (1991); Schmidt et al., Antimicrob Agents Chemother. 52:3994-4000 (2008); Yuk et al., Clin Pharmacokinet. 17:223-235 (1989); McKay et al., Evaluation of oritavancin activity in vitro in the presence of human and mouse serum, abstr P1854. Abstr. 19th European Congress of Clinical Microbiology and Infectious Diseases. European Society of Clinical Microbiology and Infectious Diseases, Basel, Switzerland, May 16, 2009).
(§2) Pooled sera from humans, mice and rats were obtained from Equitech-Bio (Kerrville, Tex.); pooled serum from beagle dogs was from Bioreclamation (Liverpool, N.Y.). ULTRA was prepared using Centricon Plus-50 ultrafilters (Millipore, Billerica, Mass.), whose molecular weight cutoff (50 kDa) excludes albumin. ORI stock solutions were prepared following CLSI M100-818 (Clinical and Laboratory Standards Institute. 2008. CLSI document M100-S18). Staphylococcus aureus ATCC 29213 was used as the test isolate at a final inoculum of ˜5×10^5 CFU/mL in both MIC and AUIC studies.
(§3) Arithmetic MICs: Broth microdilution MIC assays with Staphylococcus aureus ATCC 29213 were based on CLSI guidelines (Clinical and Laboratory Standards Institute, 2009, CLSI document M7-A7). Growth media were 95% serum:5% CAMHB and 95% serum ultrafiltrate:5% CAMHB. […] Percent binding in serum was calculated as follows: % Bound=(1−[mean MICultrafiltrate/mean MICserum]×100%

serum protein = test: Serum protein binding from MIC shift, summary across species; type: in vitro ADME, human, mouse, rat, dog; conditions: cross-species comparative study and concordant data
Text: as §1, §2, §3

[2] = as above; type: in vitro ADME, human, mouse, rat, dog; conditions: beagle (dog); human, mouse, rat, dog serum; MIC shift; read-out: Mean serum protein binding, range for the four species tested
Text: as §1, §2, §3

[3] = Serum protein binding estimated from MIC shift, serum vs serum ultrafiltrate (dog); type: in vitro ADME; conditions: beagle dog serum; from mean MICs, broth microdilution; this study; read-out: % Bound (protein binding estimate) (converted)
Text: as §1, §2, §3

human plasma [4] = conditions: broth microdilution, various concentrations, Zhanel et al. 1998; cited from earlier work
mouse serum = conditions: broth microdilution, various concentrations, Craig, unpublished; cited from earlier work
[5] = Protein binding estimates from time kill-based assays, summary; type: in vitro ADME; conditions: human, mouse, pooled serum compared with serum ultrafiltrate; this study; summary value
Text: Avid binding of oritavancin (ORI) to filtration and dialysis membranes renders most protein binding methodologies unsuitable. To control for any impact of serum components on bacterial growth and antibiotic activity, MIC shifts (from arithmetic drug dilutions) and area under the inhibitory curve (AUIC) shifts (from time-kill assays) were quantified in the presence of serum (SER) compared to SER ultrafiltrate (ULTRA; free of albumin) to estimate ORI binding to serum. In this manner, the extent of reduction in oritavancin activity in serum was related to its degree of serum protein binding. […]
(§4) AUIC studies: Time-kill studies were performed using S. aureus ATCC 29213 at a final inoculum of 1×10^6 CFU/mL in 95% serum:5% CAMHB and in 95% serum ultrafiltrate:5% CAMHB. […] The AUIC was calculated using GraphPad Prism software. Percent binding in serum was calculated as follows: % Bound=(1−[AUICultrafiltrate/AUICserum]×100%

human plasma [6] = conditions: DCC adsorption, 1-91 μg/ml, Rowe and Brown 2001; cited from earlier work
[7] = test system: exponentially-growing S. aureus (MSSA, MRSA, VRSA); conditions: within 15 minutes to 2 hours; against MSSA, MRSA, and VRSA; McKay et al. 2009; cited from earlier work
[8] = Serum protein binding estimated from MIC shift, serum vs serum ultrafiltrate (rat); type: in vitro ADME; conditions: from mean MICs, broth microdilution, this study, read-out: % Bound (protein binding estimate) (converted)
Text: as §1, §2, §3

rat plasma = conditions: broth microdilution, various concentrations, cited from earlier work
Albumin = Albumin (Homo sapiens, UniProt P02768); conditions: cantilever nanosensor, 0.2 μg/ml, McKendry, unpublished; cited from earlier work
Sequence of Albumin (P02768 25-609): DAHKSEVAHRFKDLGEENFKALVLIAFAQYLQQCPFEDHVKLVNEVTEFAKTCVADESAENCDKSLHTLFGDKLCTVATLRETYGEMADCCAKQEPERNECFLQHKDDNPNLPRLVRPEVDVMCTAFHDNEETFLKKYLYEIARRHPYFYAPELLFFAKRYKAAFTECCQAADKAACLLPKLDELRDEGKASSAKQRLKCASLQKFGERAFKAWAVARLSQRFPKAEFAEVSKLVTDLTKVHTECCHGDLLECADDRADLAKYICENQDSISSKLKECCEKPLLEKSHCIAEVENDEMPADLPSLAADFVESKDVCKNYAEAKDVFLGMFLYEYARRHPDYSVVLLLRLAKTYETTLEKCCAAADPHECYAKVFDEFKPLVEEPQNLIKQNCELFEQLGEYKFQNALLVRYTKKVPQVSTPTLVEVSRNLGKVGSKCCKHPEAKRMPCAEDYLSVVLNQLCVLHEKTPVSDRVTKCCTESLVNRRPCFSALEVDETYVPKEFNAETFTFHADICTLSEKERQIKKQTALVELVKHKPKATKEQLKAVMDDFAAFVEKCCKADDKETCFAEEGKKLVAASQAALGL

human serum = conditions: broth microdilution, various concentrations, Craig, unpublished; cited from earlier work
[9] = Serum protein binding estimated from MIC shift, serum vs serum ultrafiltrate (human); type: in vitro ADME; conditions: from mean MICs, broth microdilution, this study, read-out: % Bound (protein binding estimate) (converted)
Text: as §1, §2, §3

S. aureus ATCC 29213 = test: Broth microdilution MIC with arithmetic drug dilutions; type: cell-based, Staphylococcus aureus; conditions: for MIC: Staphylococcus aureus
Protocol: as §2
Arithmetic MICs: Broth microdilution MIC assays with Staphylococcus aureus ATCC 29213 were based on CLSI guidelines (Clinical and Laboratory Standards Institute, 2009, CLSI document M7-A7). Growth media were 95% serum:5% CAMHB and 95% serum ultrafiltrate:5% CAMHB. Arithmetic dilutions of oritavancin and comparators were used to increase precision of minimum inhibitory concentration (MIC) values relative to doubling dilutions. Percent binding in serum was calculated as follows: % Bound=(1−[mean MICultrafiltrate/mean MICserum]×100%

[10] = Serum protein binding from time-kill AUIC shift, serum vs serum ultrafiltrate (human); type: in vitro ADME; conditions: pooled human serum compared with serum ultrafiltrate, read-out: Protein binding from area under the bacterial kill curves (converted)
Text: as §1, §2, §4

[11] = Serum protein binding from time-kill AUIC shift, serum vs serum ultrafiltrate (mouse); type: in vitro ADME; conditions: pooled mouse serum compared with serum ultrafiltrate, read-out: Protein binding from area under the bacterial kill curves (converted)
Text: as §1, §2, §4

Question: Which results are given for `CN[C@H](CC(C)C)C(=O)N[C@H]1C(=O)N[C@@H](CC(N)=O)C(=O)N[C@H]2C(=O)N[C@H]3C(=O)N[C@H](C(=O)N[C@H](C(=O)O)c4cc(O)cc(O)c4-c4cc3ccc4O)[C@H](O[C@H]3C[C@](C)(N)[C@@H](O)[C@H](C)O3)c3ccc(c(Cl)c3)Oc3cc2cc(c3O[C@@H]2O[C@H](CO)[C@@H](O)[C@H](O)[C@H]2O[C@H]2C[C@](C)(NCc3ccc(-c4ccc(Cl)cc4)cc3)[C@@H](O)[C@H](C)O2)Oc2ccc(cc2Cl)[C@H]1O` [Oritavancin, N-(4-(4-chlorophenyl)benzyl)A82846B]?
Answer: fraction unbound [1]: 0.147; Bound to serum protein, overall conclusion across species (serum protein): approximately 85%; fraction unbound [2]: 0.129 to 0.181; fraction unbound [3]: 0.129; Protein Binding (human plasma [4]): 87.5%; Protein Binding (mouse serum): 85.2%; fraction unbound [5]: ~0.35; Protein Binding (human plasma [6]): 85.7-89.9%; Bactericidal activity, log reduction [7]: ≥ 3 log; fraction unbound [8]: 0.176; Protein Binding (rat plasma; Zhanel et al. 1998, listed as oritavancin): greater than 80%; Protein Binding (rat plasma; Zhanel et al. 1998): >80%; Protein Binding (Albumin): 79 ± 0.2%; Protein Binding (human serum): 79.6%; fraction unbound [9]: 0.181; MIC (S. aureus ATCC 29213; ATCC29213, read-out: MIC, CAMHB, mean, cation-adjusted Mueller-Hinton broth, CLSI conditions, Dog): 0.08 µg/mL (≈ 0.0446 µM); MIC (S. aureus ATCC 29213; ATCC29213, read-out: MIC, CAMHB, mean, cation-adjusted Mueller-Hinton broth, CLSI conditions, Human): 0.084 µg/mL (≈ 0.0468 µM); MIC (S. aureus ATCC 29213; ATCC29213, read-out: MIC, CAMHB, mean, cation-adjusted Mueller-Hinton broth, CLSI conditions, Mouse): 0.105 µg/mL (≈ 0.0586 µM); MIC (S. aureus ATCC 29213; ATCC29213, read-out: MIC, CAMHB, mean, cation-adjusted Mueller-Hinton broth, CLSI conditions, Rat): 0.086 µg/mL (≈ 0.048 µM); MIC (S. aureus ATCC 29213; ATCC29213, read-out: MIC, Serum, mean, 95% dog serum + 5% CAMHB): 0.475 µg/mL; MIC (S. aureus ATCC 29213; ATCC29213, read-out: MIC, Serum, mean, 95% human serum + 5% CAMHB): 0.775 µg/mL; MIC (S. aureus ATCC 29213; ATCC29213, read-out: MIC, Serum, mean, 95% mouse serum + 5% CAMHB): 0.538 µg/mL; MIC (S. aureus ATCC 29213; ATCC29213, read-out: MIC, Serum, mean, 95% rat serum + 5% CAMHB): 0.313 µg/mL; MIC (S. aureus ATCC 29213; ATCC29213, read-out: MIC, Ultrafiltrate, mean, 95% dog serum ultrafiltrate + 5% CAMHB): 0.061 µg/mL; MIC (S. aureus ATCC 29213; ATCC29213, read-out: MIC, Ultrafiltrate, mean, 95% human serum ultrafiltrate + 5% CAMHB): 0.14 µg/mL; MIC (S. aureus ATCC 29213; ATCC29213, read-out: MIC, Ultrafiltrate, mean, 95% mouse serum ultrafiltrate + 5% CAMHB): 0.079 µg/mL; MIC (S. aureus ATCC 29213; ATCC29213, read-out: MIC, Ultrafiltrate, mean, 95% rat serum ultrafiltrate + 5% CAMHB): 0.055 µg/mL; Mean Fold MIC Increase (S. aureus ATCC 29213; mean MIC in 95% dog serum / mean MIC in 95% dog serum ultrafiltrate): 7.8 fold; Mean Fold MIC Increase (S. aureus ATCC 29213; mean MIC in 95% human serum / mean MIC in 95% human serum ultrafiltrate): 5.5 fold; Mean Fold MIC Increase (S. aureus ATCC 29213; mean MIC in 95% mouse serum / mean MIC in 95% mouse serum ultrafiltrate): 6.8 fold; Mean Fold MIC Increase (S. aureus ATCC 29213; mean MIC in 95% rat serum / mean MIC in 95% rat serum ultrafiltrate): 5.7 fold; fraction unbound at 0.5 μg/ml ([10]; 0.5 μg/ml oritavancin): 0.326; fraction unbound at 1 μg/ml ([10]; 1 μg/ml oritavancin): 0.361; fraction unbound at 2 μg/ml ([10]; 2 μg/ml oritavancin): 0.383; fraction unbound at 0.5 μg/ml ([11]; 0.5 μg/ml oritavancin): 0.335; fraction unbound at 1 μg/ml ([11]; 1 μg/ml oritavancin): 0.317; fraction unbound at 2 μg/ml ([11]; 2 μg/ml oritavancin): 0.312
